From patent US20070202192A1, “Fungical Mixtures For Controlling Rice Pathogens” (BASF AKTIENGESELLSCHAFT, priority 2003, published 2007)
Structures can show the parent of a compound that is named as a salt.

System: Cochliobolus miyabeanus
Experiment: activity against brown spot of rice caused by Cochliobolus miyabeanus, protective application
Type: in vivo
Conditions: rice seedlings cultivar Tai-Nong 67, protective application, 6 days after inoculation
Description: 1% by weight of the emulsifier Uniperol® EL (wetting agent having emulsifying and dispersant action based on ethoxylated alkylphenols) was added to this solution, and the mixture was diluted with water to the desired concentration.
Use example—activity against brown spot of rice caused by Cochliobolus miyabeanus, protective application […]
The next day, the plants were inoculated with an aqueous spore suspension of Cochliobolus miyabeanus. The test plants were then placed in climatized chambers at 22-24° C. and 95-99% relative atmospheric humidity for 6 days. The extent of the development of the infection on the leaves was then determined visually.
Evaluation was carried out by determining the percentage of infected leaf area. These percentages were converted into efficacies.
The efficacy (E) is calculated as follows using Abbot's formula: E=(1−α/β)·100 α corresponds to the fungicidal infection of the treated plants in % and β corresponds to the fungicidal infection of the untreated (control) plants in % An efficacy of 0 means that the infection level of the treated plants corresponds to that of the untreated control plants; an efficacy of 100 means that the treated plants are not infected.

For `CC1CCN(c2c(-c3c(F)cc(F)cc3F)c(Cl)nc3ncnn23)CC1` [I, 5-chloro-7-(4-methylpiperidin-1-yl)-6-(2,4,6-trifluorophenyl)-[1,2,4]triazolo[1,5-a]pyrimidine], the “Efficacy in % of the untreated control” value (4 ppm active compound in the spray liquor) was 33%.
`CCO[PH](=O)O` [IIb (fosetyl-Al), ethyl phosphonate aluminum salt] was tested, and the “Efficacy in % of the untreated control” value (1 ppm active compound in the spray liquor) was 0% and the “Efficacy in % of the untreated control” value (16 ppm active compound in the spray liquor) was 0%.
